Earlier results in article PMC12580772, “A First-in-Human Study of ATM Inhibitor Lartesertib as Monotherapy in Patients with Advanced Solid Tumors” (Clinical Cancer Research, 2025).

Tested on: patient-derived xenograft models of triple-negative breast cancer
Design: method as in PMID 37079339
Conditions: single-agent gartisertib; cited from earlier work

## Nc1nn2cc(F)cnc2c1C(=O)Nc1cncc(F)c1N1CCC(C(=O)N2CCN(C3COC3)CC2)CC1 [gartisertib, reference compound]
  Tumor control rate: 27%
